In brackets after ≈: the same amount, converted by molar mass. Read-outs that look alike come from different tables or passages of the source.
Experiments:
[1] = tested on: Acinetobacter baumannii/haemolyticus: Multidrug-resistant clinical isolate (AB-3167); test: MIC determination (CLSI), AB-3167; format: cell-based; conditions: Acinetobacter baumannii/haemolyticus multidrug-resistant clinical isolate; overnight incubation; lower of duplicate values; read-out: AB-3167 (MIC)
Protocol: (§1) The in vitro antibacterial activity of compounds described in the Examples was evaluated by minimum inhibitory concentration (MIC) testing according to Clinical and Laboratory Standards Institute (CLSI) Guidelines. See: Clinical and Laboratory Standards Institute. Methods for Dilution Antimicrobial Susceptibility Tests for Bacteria that Grow Aerobically; Approved Standard-Eighth Edition. CLSI document M7-A8 [ISBN 1-56238-689-1]. Clinical and Laboratory Standards Institute, 940 West Valley Road, Suite 1400, Wayne, Pa. 19087-1898 USA, 2006; also Clinical and Laboratory Standards Institute. Performance Standards for Antimicrobial Susceptibility Testing; Twentieth Informational Supplement. CLSI document M100-S20 [ISBN1-56238-716-2]. Clinical and Laboratory Standards Institute.
(§2) The MIC determination is a standard laboratory method for evaluating the antibacterial activity of a compound. The MIC represents the lowest drug concentration that inhibits visible growth of bacteria following overnight incubation. […] Typically, the drug concentration range is broken down into 2-fold increments (e.g. 0.06 μg/mL, 0.12 μg/mL. 0.25 μg/mL, 0.50 μg/mL, 1.0 μg/mL, etc.) and the various drug concentrations are all individually incubated overnight with approximately the same number of bacteria. The MIC is then determined by visually inspecting the drug effect at each concentration, and identifying the lowest drug concentration that has inhibited bacterial growth as compared to the drug free control. Typically, bacteria continue to grow at drug concentrations lower than the MIC and don't grow at concentrations at and above the MIC.
(§3) The MIC values described in Tables 2 and 3 below were derived from assays wherein each test compound was evaluated in duplicate. In cases where the duplicate values varied by 0-2-fold, the lower of the two values was reported below. Generally speaking, if the duplicate values varied by more than 2-fold, the assay was considered non-valid and was repeated until the variation between duplicate runs was ≦2-fold. In line with the CLSI guidelines referred to above, both control organisms and reference compounds were utilized in each MIC assay to provide proper quality control. MIC values generated with these control organisms and reference compounds were required to fall within a defined range for the assay to be considered valid and be included herein. Those skilled in the art will recognize that MIC values can and do vary from experiment to experiment. Generally speaking, it should be recognized that MIC values often vary +/−2-fold from experiment to experiment. While a single MIC is reported for each compound and each microorganism, the reader should not conclude that each compound was only tested once. Several of the compounds were subjected to multiple tests. The data reported in Tables 2 and 3 is reflective of the compounds relative activity and different MICs may have been generated on these occasions in line with the guidelines described above.
(§4) The following bacterial strains were used in these MIC determinations:
(1) Acinetobacter baumannii/haemolyticus: Multidrug-resistant clinical isolate labeled as AB-3167 in Table 5;

[2] = tested on: Escherichia coli EC-1: VOGEL, mouse virulent; test: MIC determination (CLSI), EC-1; format: cell-based; conditions: Escherichia coli, read-out: EC-1 (MIC)
Protocol: as §1, §2, §3, §4
(2) Escherichia coli EC-1: VOGEL, mouse virulent labeled as EC-1 in Table 5;

[3] = tested on: Klebsiella pneumoniae: Ciprofloxacin-resistant isolate, expresses ESBL, clinical isolate (KP-3700); test: MIC determination (CLSI), KP-3700; format: cell-based; conditions: overnight incubation, lower of duplicate values
Protocol: as §1, §2, §3, §4
(3) Klebsiella pneumoniae: Ciprofloxacin-resistant isolate, expresses extended-spectrum beta-lactamases (ESBL), clinical isolate, labeled as KP-3700 in Table 5.

[4] = tested on: Pseudomonas aeruginosa UI-18: Wild-type (PA-7); test: MIC determination (CLSI), PA-7; format: cell-based; conditions: Pseudomonas aeruginosa UI-18 wild-type; overnight incubation; lower of duplicate values; read-out: PA-7 (MIC)
Protocol: as §1, §2, §3, §4
(4) Pseudomonas aeruginosa UI-18: Wild-type, labeled as PA-7 in Table 5;

[5] = biological target: T1, Pseudomonas aeruginosa LpxC enzyme (Pseudomonas aeruginosa, UniProt P47205); test: IC50 assay, LpxC enzyme from P. aeruginosa (BioTrove RapidFire mass spectrometry); format: biochemical
T1 construct: made in house; host or cells: E. coli
T1 sequence (P47205 1-303): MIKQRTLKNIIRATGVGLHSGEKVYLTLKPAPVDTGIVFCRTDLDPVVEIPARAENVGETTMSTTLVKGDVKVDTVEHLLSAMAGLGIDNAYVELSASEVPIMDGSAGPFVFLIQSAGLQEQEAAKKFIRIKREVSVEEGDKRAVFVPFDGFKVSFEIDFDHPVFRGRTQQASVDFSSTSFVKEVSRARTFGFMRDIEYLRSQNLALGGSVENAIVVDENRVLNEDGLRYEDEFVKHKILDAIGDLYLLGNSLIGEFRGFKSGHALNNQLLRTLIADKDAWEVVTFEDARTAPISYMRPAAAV
Protocol: In order to assess the compounds biological activity, selected in-vitro assays were conducted on selected compounds of Formula I. One of the assays measured the compounds ability to disrupt the synthesis of lipopolysaccharide, LPS, which is a component of the outer membrane of Gram-negative bacteria. Disruption of this synthesis is lethal to the bacteria. The assay determined the compound's ability to inhibit LpxC, which is the first enzyme in the biosynthetic pathway for LPS (measured as IC50). Additionally, MICs (minimal inhibitory concentrations) were determined for several bacteria. The specific protocols are described below:
A) IC50 Assay, LpxC Enzyme from P. Aeruginosa Labeled as PA LpxC Enzyme IC50):
At the end of 1 hour, 5 ul of 1 N HCl was added to stop the enzyme reaction, the plates were centrifuged, and then processed with the BioTrove Rapidfire HTMS Mass Spectrometry System. A no-enzyme control was used in calculating the IC50 values from the percent conversion values.

[6] = P. aeruginosa LpxC enzyme 0.1 nM, 25° C., 1 hour, pH 8.0, read-out: PA: IC50

| Compound | MIC [1] [µg/mL] | MIC [2] [µg/mL] | KP-3700 (MIC) [3] [µg/mL] | MIC [4] [µg/mL] | IC50 [5, 6] [nM] | IC50 [5] [nM] |
| --- | --- | --- | --- | --- | --- | --- |
| CC(CCn1cc(-c2ccc(Cl)cc2)nn1)(C(=O)NO)S(C)(=O)=O (centres unmarked) [Example 26, 4-[4-(4-chlorophenyl)-1H-1,2,3-triazol-1-yl]-N-hydroxy-2-methyl-2-(methylsulfonyl)butanamide] | > 64 | 32 (≈ 85.8 µM) | 32 | 4 (≈ 10.7 µM) | 2.87 |  |
| CC(CCn1cc(-c2cccc(-c3ccno3)c2)cn1)(C(=O)NO)S(C)(=O)=O (centres unmarked) [Example 74, N-hydroxy-2-methyl-2-(methylsulfonyl)-4-{4-[3-(1,2-oxazol-5-yl)phenyl]-1H-pyrazol-1-yl}butanamide] | > 64 | > 64 | >64.0 | 32 (≈ 79.1 µM) | 2.45 |  |
| CC(CCn1cc(-c2ccc(Cl)cn2)cn1)(C(=O)NO)S(C)(=O)=O (centres unmarked) [Example 54, 4-[4-(5-chloropyridin-2-yl)-1H-pyrazol-1-yl]-N-hydroxy-2-methyl-2-(methylsulfonyl)butanamide] | > 64 | > 64 | >64.0 | 16 (≈ 42.9 µM) | 6.94 |  |
| CSc1cccc(OCc2cn(CCC(C)(C(=O)NO)S(C)(=O)=O)nn2)c1 (centres unmarked) [Example 36, N-hydroxy-2-methyl-4-(4-{[3-(methylsulfanyl)phenoxy]methyl}-1H-1,2,3-triazol-1-yl)-2-(methylsulfonyl)butanamide] | > 64 | > 64 | >64.0 | 32 (≈ 77.2 µM) | 6.39 |  |
| C[C@@](CCn1cc(-c2ccc(Cl)cc2F)nn1)(C(=O)NO)S(C)(=O)=O [Example 24, (2R)-4-[4-(4-chloro-2-fluorophenyl)-1H-1,2,3-triazol-1-yl]-N-hydroxy-2-methyl-2-(methylsulfonyl)butanamide] | > 64 | 2 (≈ 5.12 µM) | 4 | 1 (≈ 2.56 µM) |  | 0.657 |
| CCc1nc2ccc(-c3cnn(CCC(C)(C(=O)NO)S(C)(=O)=O)c3)cc2s1 (centres unmarked) [Example 91, 4-[4-(2-ethyl-1,3-benzothiazol-6-yl)-1H-pyrazol-1-yl]-N-hydroxy-2-methyl-2-(methylsulfonyl)butanamide] | > 64 | 32 (≈ 75.7 µM) | >64.0 | 16 (≈ 37.9 µM) | 2.55 |  |
| CC(CCn1cc(COc2ccc(C(F)(F)F)cc2)nn1)(C(=O)NO)S(C)(=O)=O (centres unmarked) [Example 33, N-hydroxy-2-methyl-2-(methylsulfonyl)-4-(4-{[4-(trifluoromethyl)phenoxy]methyl}-1H-1,2,3-triazol-1-yl)butanamide] | > 64 | 64 (≈ 147 µM) | >64.0 | 32 (≈ 73.3 µM) | 9.6 |  |
| C[C@@](CCn1cc(-c2nc3ccccc3o2)cn1)(C(=O)NO)S(C)(=O)=O [Example 10, (2R)-4-[4-(1,3-benzoxazol-2-yl)-1H-pyrazol-1-yl]-N-hydroxy-2-methyl-2-(methylsulfonyl)butanamide] | 32 (≈ 84.6 µM) | 32 (≈ 84.6 µM) | >64.0 | 32 (≈ 84.6 µM) | 13.8 |  |
| Cc1cnn(CC[C@](C)(C(=O)NO)S(C)(=O)=O)c1 [Example 5, (2R)—N-hydroxy-2-methyl-4-(4-methyl-1H-pyrazol-1-yl)-2-(methylsulfonyl)butanamide] | > 64 | > 64 | >64.0 | 32 (≈ 116 µM) | > 100 |  |
| CC(CCn1cc(-c2cc(F)ccc2F)cn1)(C(=O)NO)S(C)(=O)=O (centres unmarked) [Example 56, 4-[4-(2,5-difluorophenyl)-1H-pyrazol-1-yl]-N-hydroxy-2-methyl-2-(methylsulfonyl)butanamide] | > 64 | 32 (≈ 85.7 µM) | >64.0 | 8 (≈ 21.4 µM) | 6.75 |  |
| CC(CCn1cc(-c2ccc(F)c(C#N)c2)cn1)(C(=O)NO)S(C)(=O)=O (centres unmarked) [Example 59, 4-[4-(3-cyano-4-fluorophenyl)-1H-pyrazol-1-yl]-N-hydroxy-2-methyl-2-(methylsulfonyl)butanamide] | > 64 | > 64 | >64.0 | 64 (≈ 168 µM) | 11.6 |  |
| CC(CCn1cc(-c2cn(Cc3ccccc3)cn2)cn1)(C(=O)NO)S(C)(=O)=O (centres unmarked) [Example 83, 4-[4-(1-benzyl-1H-imidazol-4-yl)-1H-pyrazol-1-yl]-N-hydroxy-2-methyl-2-(methylsulfonyl)butanamide] |  |  |  |  | > 100 |  |
| C[C@@](CCn1cc(C2=CCCCC2)cn1)(C(=O)NO)S(C)(=O)=O [Example 1, (2R)-4-[4-(cyclohex-1-en-1-yl)-1H-pyrazol-1-yl]-N-hydroxy-2-methyl-2-(methylsulfonyl)butanamide] | > 64 | 8 (≈ 23.4 µM) | 16 | 1 (≈ 2.93 µM) |  |  |
| C[C@@](CCn1cc(-c2ccc(F)c(F)c2F)nn1)(C(=O)NO)S(C)(=O)=O [Example 18, (2R)-N-hydroxy-2-methyl-2-(methylsulfonyl)-4-[4-(2,3,4-trifluorophenyl)-1H-1,2,3-triazol-1-yl]butanamide] |  |  |  |  | 3.29 |  |
| C[C@@](CCn1cc(-c2ccc(-c3ncco3)cc2)cn1)(C(=O)NO)S(C)(=O)=O [Example 12, (2R)—N-hydroxy-2-methyl-2-(methylsulfonyl)-4-{4-[4-(1,3-oxazol-2-yl)phenyl]-1H-pyrazol-1-yl}butanamide] |  |  |  |  | 0.963 |  |
| CC(CCn1cc(CSc2ccc(Br)cc2)nn1)(C(=O)NO)S(C)(=O)=O (centres unmarked) [Example 25, 4-(4-{[(4-bromophenyl)sulfanyl]methyl}-1H-1,2,3-triazol-1-yl)-N-hydroxy-2-methyl-2-(methylsulfonyl)butanamide] |  |  |  |  | 10.1 |  |
| C[C@@](CCn1cnc(-c2ccccc2)c1)(C(=O)NO)S(C)(=O)=O (stereo in doubt) [Example 13, N-hydroxy-2-methyl-2-(methylsulfonyl)-4-(4-phenyl-1H-imidazol-1-yl)butanamide] | > 64 | > 64 | >64.0 | > 64 |  |  |
| CC(CCn1cc(-c2cn(-c3ccc(F)cc3)cn2)cn1)(C(=O)NO)S(C)(=O)=O (centres unmarked) [Example 89, 4-{4-[1-(4-fluorophenyl)-1H-imidazol-4-yl]-1H-pyrazol-1-yl}-N-hydroxy-2-methyl-2-(methylsulfonyl)butanamide] |  |  |  |  | > 100 |  |

— patent US8809333B2, “Imidazole, pyrazole, and triazole derivatives useful as antibacterial agents” (Pfizer Inc., priority 2011, dated 2014)
